Data as given in US12011459B2, “Methods for manufacturing T cells by direct sorting and compositions thereof” (Immatics US, Inc., priority 2019, dated 2024).
Values joined by “and” are separate entries in the source; they are usually repeats but may differ in a detail not shown here. Identical values can stand only once.

Experiments:
[1] = test system: Col6A3 REP1 cells (αCol6A3 T cells); assay: Col6A3-002 2D tetramer staining of Col6A3 REP1 cells with dasatinib treatment, flow cytometry; assay type: cell-based; conditions: for background staining of BV421/APC double-positive irrelevant peptide T cells (Q2): bench and centrifugation at 4° C.
Method: To determine which staining conditions that may provide higher staining index (SI), indicating better separation of cells stained positive from cells stained negative, and lower false negative rate, Col6A3 REP1 cells, which were prepared by rapid expansion protocol (REP), were stained±DAS treatment (at 37° C.), ±irrelevant peptide tetramer mix, and staining at RT or 37° C.
Staining index (SI) may be calculated by using formula (I): SI=(mean PE+mean BV421 2Dtet+)−(mean PE+mean BV421 2Dtet−)/2×(SD PE+SD BV421 2Dtet−). […] (P=0.316695), and ±irrelevant peptide tetramer mix (P=0.597223).
The estimation per 1×10^6 based on flow %, which indicates numbers of peptide-specific T cells per 1×10^6 of CD45+ cells, may be calculated by the formula: (2Dtet+%×1×10^6/100)−((2Dtet+%×1×10^6/100)×irrelevant peptide tetramer mix+%/100)). Table 14 summarizes the estimations under the staining conditions A-G. DAS treatment was performed at 37° C. for 30 minutes.

[2] = test system: PBMC; assay: Col6A3-002 2D tetramer staining of PBMC with dasatinib treatment, flow cytometry; assay type: cell-based, human; conditions: for 2D PE/BV421 Tet-positive and irrelevant peptide APC tetramer-negative events: 4° C.
Method: To compare the effects of PKI and temperatures on pMHC multimer staining, healthy donor peripheral blood mononuclear cells (PBMCs) were pretreated with 50 nM Dasatinib (FIG. 21A) or untreated (FIG. 21B) and then stained with two Col6A3-002 peptide (FLLDGSANV (SEQ ID NO: 141)) (Col) tetramers (2Dtet) conjugated to streptavidin BV421 and PE, and five different irrelevant APC tetramers (peptide 1, peptide 2, peptide 3, peptide 4, and peptide 5) at either 37° C. (FIG. 21A) or room-temperature (RT) (FIG. 21B) for 30 minutes. Following tetramer staining, samples were counterstained with tetramer stabilizing antibodies staining against PE and APC at 4° C., followed by staining with anti-CD45 PE-Cy7 antibody at 4° C.
To determine which staining conditions that may provide lowest background and lowest false positive rate, PBMC were stained with or without PKI treatment, e.g., dasatinib (DAS), with or without irrelevant peptide tetramer mix at different tetramer staining temperatures (Hadrup et al., Nat. Methods, 2009, 6:520-526; the content of which is hereby incorporated by reference in its entirety). For example, PBMC cells were stained with 2D Tet (PE+BV421) in the presence or in the absence of irrelevant peptide tetramer mix, e.g., five different irrelevant peptides (e.g., Col6A3-015 (YLMDDFSSL (SEQ ID NO: 16)), MAG-003 (KVLEHVVRV (SEQ ID NO: 118)), MAGEC2-001 (TLDEKVAEL (SEQ ID NO: 161)), MXRA5-003 (LLWGHPRVALA (SEQ ID NO: 18), and MAGEA1-003 (KVLEYVIKV (SEQ ID NO: 105)) APC tetramers±DAS treatment, at 37° C. or at room temperature (RT). DAS treatments were performed at 37° C.
To investigate PBMC staining under conditions D and G, PBMC (12.5×10^6 cells/ml) obtained from 4 donors were stained±DAS treatment (50 nM, at 37° C.), Col6A3-002 BV421 tetramer (3 μg/ml) and Col6A3-002 PE Tetramer (2.5 μg/ml), fluorochrome-labeled anti-CD45 antibody, e.g., PE-Cy7 mouse anti-human CD45 (BD Biosciences), Col6A3-002 BV421 tetramer (3 μg/ml), and APC irrelevant peptides (n=5, e.g., Col6A3-015 (YLMDDFSSL (SEQ ID NO: 16)), MAG-003 (KVLEHWRV (SEQ ID NO: 118)), MAGEC2-001 (TLDEKVAEL (SEQ ID NO: 161)), MXRA5-003 (LLWGHPRVALA (SEQ ID NO: 18), and MAGEA1-003 (KVLEYVIKV (SEQ ID NO: 105)) tetramer mix (3 μg/ml) with all staining, spins, and washes at 4° C.
The experiments shown in FIGS. 37A-37D were repeated using a different fluorochrome-labeled anti-CD45 antibody, e.g., PE-Cy™7 mouse anti-human CD45 (BD Biosciences). PBMC (10×10^6 cells/nil) obtained from 4 donors were stained with or without DAS treatment (50 nM, at 37° C.), BV421 (3 μg/ml), Col6A3-002 2D Tet (PE+BV421) (2.5 μg/ml), PerCP-Cy™5.5 mouse anti-human CD45 (BD Biosciences), Col6A3-002 BV421 tetramer (3 μg/ml), and APC (n=5) irrelevant tetramer mix (3 μg/ml) with all staining, spins, and washes at 4° C.

[3] = test system: Col6A3 REP1 cells (αCol6A3 T cells); assay: Col6A3-002 2D tetramer staining of Col6A3 REP1 cells with dasatinib treatment, flow cytometry; assay type: cell-based; conditions: Col6A3 PEP1 cells
[4] = test system: αCol6A3 T cells spiked in PBMC (1:1×10^5); assay: Col6A3-002 2D tetramer staining of αCol6A3 T cells spiked in PBMC, condition #1; assay type: cell-based; conditions: staining at 37° C.
Method: Condition #1: with DAS treatment+irrelevant peptide tetramer mix, staining at 37° C.
Sample #2: αCol6A3 T cells spiked in PBMC (1:1×10^5), about 2×10^6 CD45+cells acquired

[5] = DAS treatment, staining at 37° C., with irrelevant peptide APC tetramer mix, listed as DAS
[6] = DAS treatment, staining at RT, with irrelevant peptide APC tetramer mix
[7] = PBMC, DAS treatment, staining at RT, with irrelevant peptide APC tetramer mix
[8] = DAS treatment + irrelevant peptide tetramer mix

Compound: Cc1nc(Nc2ncc(C(=O)Nc3c(C)cccc3Cl)s2)cc(N2CCN(CCO)CC2)n1 [Dasatinib, dasatinib]
- irrelevant peptide positive T cells in Q2 cells [1, 5]: 6.38% and 3.18%
- staining index (SI) [1, 5]: 19.0 and 15.6
- 2D Tet (PE+BV421) double-positive cells (Q2) of CD45+ cells [1, 6]: 55.8%
- APC-negative/BV421-positive cells (true Col6A3 REP1 cells, Q1) in Q2 cells [1, 6]: about 78.4%
- irrelevant peptide positive T cells in Q2 cells [1, 6]: 21.6%
- staining index (SI) [1, 6]: 24.0
- Estimation per 1e6 based on flow % (peptide-specific T cells per 1×10^6 CD45+ cells) ([1]; condition A: Dasatinib +, Tet stain 37, bench RT, centrifuge RT): 2.24 × 10^5 per 1e6
- background staining of BV421/APC double-positive irrelevant peptide T cells (Q2) ([1]; condition C: DAS, Tet staining at 37° C.): 2.01%
- Estimation per 1e6 based on flow % (peptide-specific T cells per 1×10^6 CD45+ cells) ([1]; condition C: Dasatinib +, Tet stain 37, bench 4, centrifuge 4): 5.61 × 10^5 per 1e6
- background staining of BV421/APC double-positive irrelevant peptide T cells (Q2) ([1]; condition D: DAS, Tet staining): 13.7%
- Estimation per 1e6 based on flow % (peptide-specific T cells per 1×10^6 CD45+ cells) ([1]; condition D: Dasatinib +, Tet stain 4, bench 4, centrifuge 4): 6.75 × 10^5 per 1e6
- background staining of BV421/APC double-positive irrelevant peptide T cells (Q2) ([1]; condition F: DAS, Tet staining at RT): 3.07%
- Estimation per 1e6 based on flow % (peptide-specific T cells per 1×10^6 CD45+ cells) ([1]; condition F: Dasatinib +, Tet stain RT, bench 4, centrifuge 4): 6.75 × 10^5 per 1e6
- 2D PE/BV421 Tet-positive and irrelevant peptide APC tetramer-negative events ([2]; PBMC sample S1, in 1.29×10^7 lymphocytes acquired, DAS): 128 events
- 2D PE/BV421 Tet-positive and irrelevant peptide APC tetramer-negative events ([2]; PBMC sample S2, in 6.09×10^6 lymphocytes acquired, DAS): 68 events
- 2D PE/BV421 Tet-positive and irrelevant peptide APC tetramer-negative events ([2]; PBMC sample S3, in 9.71×10^5 lymphocytes acquired, DAS): 23 events
- 2D PE/BV421 Tet-positive and irrelevant peptide APC tetramer-negative events ([2]; PBMC sample S4, in 5.35×10^6 lymphocytes acquired, DAS): 80 events
- 2D Tet (PE+BV421) double-positive cells (Q2) of CD45+ cells ([2]; PBMC, 50 nM dasatinib treatment, Tet staining at 37° C., with irrelevant peptide APC tetramer mix): 0.027%
- 2D Tet (PE+BV421) double-positive cells (Q2) of CD45+ cells ([2]; PBMC, DAS 50 nM at 37° C., all staining, spins, washes at 4° C., with irrelevant mix, FIG. 37A): 4.23E-3%
- 2D Tet (PE+BV421)-positive and irrelevant peptide-negative cells in Q2 cells ([2]; PBMC, DAS 50 nM, all staining, spins, washes at 4° C., FIG. 37A): 46.5%
- 2D Tet (PE+BV421) double-positive cells (Q2) of CD45+ cells ([2]; PBMC, DAS treatment, staining at 37° C., absence of irrelevant peptide APC tetramer mix): 0.19%
- APC-negative/BV421-positive cells (true Col6A3-specific T cells, Q1) in Q2 cells ([2]; PBMC, DAS treatment, staining at 37° C., with irrelevant peptide APC tetramer mix): 0.93%
- irrelevant peptide positive T cells in the BV421/PE double-positive (Q2) cells ([2]; PBMC, DAS treatment, staining at 37° C., with irrelevant peptide APC tetramer mix, listed as DAS): 98.2% and 99.1%
- 2D Tet (PE+BV421) double-positive cells (Q2) of CD45+ cells ([2]; PBMC, DAS treatment, staining at RT, absence of irrelevant peptide APC tetramer mix): 7.17E-3%
- 2D Tet (PE+BV421) double-positive cells (Q2) of CD45+ cells [2, 7]: 8.04E-3%
- APC-negative/BV421-positive cells (true Col6A3-specific T cells, Q1) in Q2 cells [2, 7]: about 4.76%
- irrelevant peptide positive T cells in the BV421/PE double-positive (Q2) cells [2, 7]: 95.2%
- final frequency: one Col Tet+ T cell in N CD45+ cells ([2]; PBMC, dasatinib treatment, staining at 37° C., with irrelevant APC tetramers): 4×10^5 CD45+ cells
- 2D PE/BV421 Tet-positive and irrelevant peptide APC tetramer-negative events ([2]; PBMC, in 4.78×10^6 lymphocytes acquired, DAS): 94 events
- increase of MFI ([2]; in ¼ of DAS-treated samples): about 2 ×
- 2D PE/BV421 Tet-positive and irrelevant peptide APC tetramer-negative cells detected ([2]; only PBMC, in 2×10^6 CD45+ cells acquired, DAS, staining at 37° C.): 5 cells
- 2D Tet (PE+BV421)-positive and irrelevant peptide-negative cells in Q2 cells ([3]; DAS treatment, 4° C., FIG. 39): 95.8%
- 2D Tet (PE+BV421) double-positive cells (Q2) of CD45+ cells ([3]; DAS treatment, all staining, spins, washes at 4° C., FIG. 39): 68.9%
- 2D PE/BV421 Tet-positive and irrelevant peptide APC tetramer-negative events ([3]; in 206055 lymphocytes acquired, DAS, 4° C.): 135941 events
- 2D PE/BV421 Tet double-positive cells (Q2) of CD45+ cells [4, 8]: 0.035%
- APC-negative/BV421-positive cells (true αCol6A3 T cells, Q1) in Q2 cells [4, 8]: about 2.58%
- BV421/APC double-positive irrelevant peptide T cells in Q2 cells [4, 8]: 97.4%
- one αCol6A3 T cell in N CD45+ cells [4, 8]: 1×10^5 CD45+ cells
- 2D PE/BV421 Tet-positive and irrelevant peptide APC tetramer-negative events ([4]; in 2×10^6 CD45+ cells acquired, DAS): 18 events
